What is called IC50 is the midpoint of a concentration-inhibition curve. As a reminder, the ED50 is the dose at which the effect has come halfway, by size or by number of responders. A word on the EC50: it is the concentration that produces a half-maximal response.

Each structure is given as a SMILES string. In brackets after ≈: the same amount, converted by molar mass.

The test system of data set [1] is Toxoplasma gondii. The experiment in a line: Antiparasitic activity against Toxoplasma gondii type II infected in human foreskin fibroblast incubated for 24 hrs by Hoechst staining based microscopic analysis. Format: functional, organism-based.
In data set [2] the test system is Toxoplasma gondii. The experiment in a line: Antiparasitic activity against Toxoplasma gondii type I infected in human foreskin fibroblast incubated for 24 hrs by Hoechst staining based microscopic analysis. Format: functional, organism-based.
The target in a further data set is Histone deacetylase 1 (Homo sapiens, UniProt Q13547). As to the kind of experiment: Inhibition of HDAC1 in human HeLa nuclear extract incubated for 30 mins by fluorescence based analysis. Type of data set: cell-free.
Histone deacetylase 1, sequence (Q13547 whole entry): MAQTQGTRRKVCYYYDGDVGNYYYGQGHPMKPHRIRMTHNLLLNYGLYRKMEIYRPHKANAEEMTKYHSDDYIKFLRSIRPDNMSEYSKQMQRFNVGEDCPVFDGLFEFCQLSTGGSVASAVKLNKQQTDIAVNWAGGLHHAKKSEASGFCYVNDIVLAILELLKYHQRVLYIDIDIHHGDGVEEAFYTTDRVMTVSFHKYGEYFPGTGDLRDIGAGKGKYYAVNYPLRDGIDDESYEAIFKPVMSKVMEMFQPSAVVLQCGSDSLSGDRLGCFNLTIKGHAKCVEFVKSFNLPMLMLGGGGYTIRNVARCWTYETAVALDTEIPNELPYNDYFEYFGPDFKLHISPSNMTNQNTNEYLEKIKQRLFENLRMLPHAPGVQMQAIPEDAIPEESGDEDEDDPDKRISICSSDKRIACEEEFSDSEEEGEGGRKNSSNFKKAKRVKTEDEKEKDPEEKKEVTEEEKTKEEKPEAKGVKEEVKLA
For data set [3], the system named is Toxoplasma gondii. As to the kind of experiment: Antiparasitic activity against Toxoplasma gondii infected in CF-1 mouse. Format: functional.
Data set [4] has as its system Toxoplasma gondii. As to the kind of experiment: Antiparasitic activity against Toxoplasma gondii infected in HFF cells incubated for 3 days by absorbance based analysis. Type of data set: functional, organism-based. The following applies: 72 h.
The test system of data set [5] is Toxoplasma gondii. The experiment in a line: Antiparasitic activity against Toxoplasma gondii. Type of data set: functional, organism-based.
Data set [6] relates to Toxoplasma gondii. The experiment in a line: Antiparasitic activity against Toxoplasma gondii RH tachyzoites infected in mouse BV-2 cells assessed as parasitic growth inhibition at 100 ug/ml by inverted fluorescence microscopic analysis relative to control. Format: functional. Details: scale not given: the % may be the effect or the level left. The following applies: dose 100 µg/ml.

A further data set has as its target T1, Dihydrofolate reductase (Homo sapiens, UniProt P00374).
T1 sequence (P00374 whole entry): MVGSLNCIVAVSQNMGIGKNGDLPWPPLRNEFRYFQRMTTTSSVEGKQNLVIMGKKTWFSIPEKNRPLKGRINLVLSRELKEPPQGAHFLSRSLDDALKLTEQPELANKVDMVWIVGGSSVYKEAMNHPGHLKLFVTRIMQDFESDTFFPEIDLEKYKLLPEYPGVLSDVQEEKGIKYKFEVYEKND
The experiment in a line: Inhibition of human DHFR.

A short description of data set [7]: Inhibition of Toxoplasma gondii DHFR.
Data set [8] relates to Toxoplasma gondii. As to the kind of experiment: Antiparasitic activity against Toxoplasma gondii infected in African green monkey Vero cells assessed as parasitic growth inhibition incubated for 24 hrs by PCR method. Type of data set: functional, organism-based.
Data set [9] concerns Toxoplasma gondii. The experiment in a line: Antiparasitic activity against Toxoplasma gondii tachyzoites. Format: functional, organism-based. The following applies: Toxoplasma gondii; read-out: EC50.
The test system of data set [10] is Toxoplasma gondii. The experiment in a line: Antiparasitic activity against Toxoplasma gondii infected in mouse at 50 mg/kg assessed as reduction in parasitic growth. Type of data set: functional. Further details: scale not given: the % may be the effect or the level left.
The nature of data set [11]: Selectivity index, ratio of IC50 for inhibition of Toxoplasma gondii HDAC3 to IC50 for antiparasitic activity against Toxoplasma gondii infected in HFF cells. Format: toxicity, cell-based. The note with it: human.
The test system of data set [12] is Toxoplasma gondii. The experiment in a line: Antiparasitic activity against Toxoplasma gondii infected in HFF cells assessed as parasitic growth inhibition by MTT assay. Format: functional, organism-based. On the technique in general: Tetrazolium assays rely on reduction of a dye to a coloured formazan, in cell work by metabolically active cells.
Data set [13] deals with Toxoplasma gondii. As to the kind of experiment: Antiparasitic activity against Toxoplasma gondii RH tachyzoites infected in human foreskin fibroblast at 1 uM incubated for 24 hrs by phase-contrast microscopy relative to control. Type of data set: functional.
The nature of data set [14]: Inhibition of Toxoplasma gondii GST-taggged IF2Kalpha in presence of ATP by ADP-Glo kinase assay.
Data set [15] deals with Toxoplasma gondii. The experiment in a line: Antiparasitic activity against Toxoplasma gondii RH tachyzoites infected in HFF cells in presence of CPRG by crystal violet staining based analysis. Format: functional, organism-based.
The nature of data set [16]: Inhibition of Toxoplasma gondii HDAC3.

On to `COc1cccc(CC(=O)Nc2ccc(C(=O)NO)cc2)c1`, for which the IC50 in the data set on Toxoplasma gondii [1] came to 2270 nM; in the data set with Toxoplasma gondii [2], 350 nM; against Histone deacetylase 1, 495 nM.

On to `O=C1C(O)=C([C@H]2CC[C@H](c3ccc(Cl)cc3)CC2)C(=O)c2ccccc21` [ATOVAQUONE], for which the median effective dose (ED50) in the data set with Toxoplasma gondii [3] was 2.53 mg/kg/day. In the data set with Toxoplasma gondii [4], this molecule came in with an EC50 of 32 nM. In the data set on Toxoplasma gondii [5], this molecule came in with an IC50 of 2.4 nM.

For `CC(C)=CCC[C@](C)(O)[C@H]1CC[C@]2(C)[C@@H]1[C@H](O)C[C@@H]1[C@@]3(C)CC[C@H](O[C@@H]4O[C@H](CO)[C@@H](O)[C@H](O)[C@H]4O)C(C)(C)[C@@H]3CC[C@]12C` [GINSENOSIDE RH2], the Activity in the data set on Toxoplasma gondii [6] was 63.4%.

As to `COc1ccc(OC)c(CN(C)c2cnc3nc(N)nc(N)c3c2)c1`, the figures for the IC50 (on Dihydrofolate reductase; in [7]) were 26 nM and 29 nM, respectively.

With `C=CCc1cc(OC)c(O[C@@H](C)[C@H](O)c2ccc(O)c(OC)c2)c(OC)c1`, the concentration for a half-maximal effect (EC50) in the data set on Toxoplasma gondii [8] came out at 32.4 µg/mL (≈ 86.6 µM).

Turning to `C/C=C/c1cc(OC)c2c(c1)[C@@H](C)[C@H](c1ccc3c(c1)OCO3)O2` [LICARINE B], the 50% effective concentration (EC50) in the data set with Toxoplasma gondii [9] was determined as 14 µg/mL (≈ 43.3 µM). Also, the Activity with Toxoplasma gondii [10] was 90%.

Regarding `CC[C@]1(C)NC(=O)[C@H](CCCCCC(=O)[C@@H](C)OC(=S)Oc2ccccc2)NC(=O)[C@H]2C[C@H](C)CN2C(=O)[C@H](Cc2ccccc2)NC1=O`, the “Ratio IC50” value in [11] is listed as 47.7. For the same molecule, the EC50 in the data set with Toxoplasma gondii [12] was 11.3 nM.

`CCCCCCCCCCCCc1c(C)n(O)c2ccc(OCCN(C)C)cc2c1=O` registered an Activity in the data set with Toxoplasma gondii [13] of 38%.

For the molecule `Cn1cc(-c2ccc3c(c2)CCN3C(=O)Cc2cccc(C(F)(F)F)c2)c2c(N)ncnc21`, the values for the IC50 (in [14]; in the data set with Toxoplasma gondii [15]) were 0.4 nM and 620 nM, respectively.

On to `CC[C@]1(C)NC(=O)[C@H](CCCCCC(=O)[C@@H](C)O)NC(=O)[C@H]2CCCN2C(=O)[C@H](Cc2ccccc2)NC1=O`, for which the IC50 in data set [16] turned out to be 22 nM.

For the origin of these results see ChEMBL document CHEMBL5230160, “Chemotherapeutics for Toxoplasma gondii: Molecular Biotargets, Binding Modes, and Structure-Activity Relationship Investigations” (J Med Chem, 2021).
